As usually defined, the EC50 is the concentration at which the effect is half-maximal. By CC50 is commonly meant the concentration that lowers cell viability or growth by half. Low readings indicate harm at low concentration, high ones better tolerance by the cells.

The values that follow come from patent US9884818B2, “Sulphamoylpyrrolamide derivatives and the use thereof as medicaments for the treatment of hepatitis B” (Janssen Sciences Ireland UC, priority 2013, dated 2018).

Data set [1] concerns HBV. Nature of the data set: Anti-HBV activity, HepG2.117 inducibly HBV producing cell line (Tet-off), intracellular HBV DNA by realtime PCR. The class given is cell-based. The following applies: Hepatitis B virus, HepG2.117, 72 h, HepG2.117 cells, 3 days of treatment, intracellular HBV DNA; read-out: HepG2 117 EC50.
A short description of data set [2]: Cytotoxicity in HepG2 cells, Resazurin viability assay. As to conditions: human, HepG2 cells, HepG2 4 days CC50 (μM), incubated for 4 days, Resazurin assay. (Alamar Blue is a resazurin reagent that responds to reducing activity.)
In data set [3] the test system is HBV. Nature of the data set: Anti-HBV activity, HepG2.2.15 stable transfected cell line, HBV DNA from secreted virions by realtime PCR. The class given is cell-based. As to conditions: HepG2.2.15 cells, 6 days of treatment, HBV DNA from secreted virions, read-out: HepG2 2.15 EC50.
The mark [4] stands for this setting: Hepatitis B virus, HepG2.2.15, 144 h.

Molecules are shown by their SMILES.

As for `CCC(C)(NS(=O)(=O)c1cc(C(=O)Nc2cc(F)c(F)c(Cl)c2)n(C)c1)C(F)(F)F` (single isomer, unassigned) [Compound 165a, N-(3-chloro-4,5-difluoro-phenyl)-1-methyl-4-[[1-methyl-1-(trifluoro-methyl)propyl]sulfamoyl]pyrrole-2-carboxamide], the EC50 was determined as 40 nM with HBV [1] and 150 nM in the data set with HBV [3] (setting [4]). Besides, the CC50 at 4 days in data set [2] is 9.3 µM.
For the compound `Cn1cc(S(=O)(=O)NC2CCC(F)(F)C2)cc1C(=O)Nc1cc(F)c(F)c(Cl)c1` (single isomer, unassigned) [Compound 166a, N-(3-Chloro-4,5-difluorophenyl)-4-[(3,3-difluorocyclopentyl)sulfamoyl]-1-methyl-1H-pyrrole-2-carboxamide], the EC50 was determined as 100 nM with HBV [1] and 140 nM in the data set with HBV [3]. In data set [2], it took 17.9 µM to reach half-maximal cytotoxicity (CC50 at 4 days).
The corresponding values for `CC(CC(F)(F)F)NS(=O)(=O)c1cc(C(=O)Nc2cc(F)c(F)c(Cl)c2)n(C)c1` (single isomer, unassigned) [Compound 169a, N-(3-Chloro-4,5-difluorophenyl)-1-methyl-4-[(3,3,3-trifluoro-1-methylpropyl)sulfamoyl]-1H-pyrrole-2-carboxamide] are 50 nM, 140 nM and 16.1 µM.
Consider `CC(NS(=O)(=O)c1cc(C(=O)Nc2ccc(F)c(C#N)c2)n(C)c1)C(F)F` (single isomer, unassigned) [Compound 200a, N-(3-Cyano-4-fluorophenyl)-4-{[2,2-difluoro-1-methylethyl]sulfamoyl}-1-methyl-1H-pyrrole-2-carboxamide], for which the EC50 stood at 50 nM in the data set on HBV [1] and 100 nM with HBV [3] (setting [4]). Besides, the CC50 at 4 days in data set [2] is over 25 µM.
In the case of `Cn1cc(S(=O)(=O)NC2(C(F)(F)F)CCOC2)cc1C(=O)Nc1ccc(F)c(C#N)c1` (single isomer, unassigned) [Compound 228a, N-(3-Cyano-4-fluorophenyl)-1-methyl-4-{[3-(trifluoromethyl)tetrahydrofuran-3-yl]sulfamoyl}-1H-pyrrole-2-carboxamide], the EC50 in the data set on HBV [1] and in the data set on HBV [3] (setting [4]) was 30 nM throughout. The same compound displayed a CC50 at 4 days in data set [2] of over 25 µM.
As to `Cn1cc(S(=O)(=O)NC2CCCC2(F)F)cc1C(=O)Nc1ccc(F)c(Cl)c1F` (single isomer, unassigned) [Compound 236a, N-(3-Chloro-2,4-difluorophenyl)-4-{[2,2-difluorocyclopentyl]sulfamoyl}-1-methyl-1H-pyrrole-2-carboxamide], the figures for the EC50 with HBV [1] and in the data set on HBV [3] were 50 nM and 20 nM, respectively. For the same compound, the cytotoxic concentration (CC50) at 4 days in data set [2] was over 25 µM.
As for `Cc1cc(NC(=O)c2cc(S(=O)(=O)NC(C)C)c[nH]2)ccc1F` [Compound 1, N-(4-fluoro-3-methyl-phenyl)-4-(isopropylsulfamoyl)-1H-pyrrole-2-carboxamide], the EC50 with HBV [1] was 3100 nM; in the data set on HBV [3] (setting [4]), 420 nM. For the same compound, the CC50 at 4 days in data set [2] is over 25 µM.
Take `Cc1cc(NC(=O)c2cc(S(=O)(=O)NC(C)C)cn2C)ccc1F` [Compound 2, N-(4-fluoro-3-methyl-phenyl)-4-(isopropylsulfamoyl)-1-methyl-pyrrole-2-carboxamide]: the EC50 in the data set with HBV [1] amounted to 60 nM; in the data set with HBV [3] (setting [4]) it was 30 nM. In data set [2], this compound displayed a half-maximal cytotoxic concentration (CC50) at 4 days of over 25 µM.
For the compound `Cc1cc(NC(=O)c2cc(S(=O)(=O)N[C@H](C)CO)cn2C)ccc1F` [Compound 3, N-(4-fluoro-3-methyl-phenyl)-4-[[(1R)-2-hydroxy-1-methyl-ethyl]sulfamoyl]-1-methyl-pyrrole-2-carboxamide], the values for the EC50 in the data set with HBV [1] and in the data set on HBV [3] (setting [4]) were 100 nM and 70 nM, respectively. For the same compound, the half-maximal cytotoxic concentration (CC50) at 4 days in data set [2] was over 25 µM.
For `Cc1cc(NC(=O)c2cc(S(=O)(=O)N[C@H]3CCOC3)cn2C)ccc1F` [Compound 4, N-(4-fluoro-3-methyl-phenyl)-1-methyl-4-[[(3S)-tetrahydrofuran-3-yl]-sulfamoyl]pyrrole-2-carboxamide], in that order: 60 nM, 100 nM and over 25 µM.
The corresponding values for `Cc1cc(NC(=O)c2cc(S(=O)(=O)NC3(C)COC3)cn2C)ccc1F` [Compound 5, N-(4-fluoro-3-methyl-phenyl)-1-methyl-4-[(3-methyloxetan-3-yl)-sulfamoyl]pyrrole-2-carboxamide] are 20 nM, 30 nM and over 25 µM.
For the compound `CC[C@@H](C)NS(=O)(=O)c1cc(C(=O)Nc2ccc(F)c(C)c2)n(C)c1` [Compound 6, N-(4-fluoro-3-methyl-phenyl)-1-methyl-4-[[(1R)-1-methylpropyl]-sulfamoyl]pyrrole-2-carboxamide], the EC50 with HBV [1] and in the data set on HBV [3] (setting [4]) was 20 nM in each case. The half-maximal cytotoxic concentration (CC50) at 4 days in data set [2] was over 25 µM.
As for `Cc1cc(NC(=O)c2cc(S(=O)(=O)NCC3(C)COC3)cn2C)ccc1F` [Compound 7, N-(4-fluoro-3-methyl-phenyl)-1-methyl-4-[(3-methyloxetan-3-yl)methylsulfamoyl]pyrrole-2-carboxamide], the results for the EC50 with HBV [1] and in the data set on HBV [3] (setting [4]) were 100 nM and 120 nM, respectively. For the same compound, in data set [2], the CC50 at 4 days was over 25 µM.
Turning to `Cc1cc(NC(=O)c2cc(S(=O)(=O)N[C@@H](C)C(F)(F)F)cn2C)ccc1F` [Compound 8, N-(4-fluoro-3-methyl-phenyl)-1-methyl-4-[[(1S)-2,2,2-trifluoro-1-methyl-ethyl]sulfamoyl]pyrrole-2-carboxamide], the EC50 in the data set with HBV [1] and with HBV [3] (setting [4]) was 20 nM in each case. Also, in data set [2], the CC50 at 4 days was over 25 µM.
In the case of `Cc1cc(NC(=O)c2cc(S(=O)(=O)N[C@H](C)C(F)(F)F)cn2C)ccc1F` [Compound 9, N-(4-fluoro-3-methyl-phenyl)-1-methyl-4-[[(1R)-2,2,2-trifluoro-1-methyl-ethyl]sulfamoyl]pyrrole-2-carboxamide], the EC50 came to 30 nM in the data set on HBV [1] and 10 nM in the data set with HBV [3] (setting [4]). The compound further returned a CC50 at 4 days in data set [2] of over 25 µM.
For `Cc1cc(NC(=O)c2cc(S(=O)(=O)NC3(CO)COC3)cn2C)ccc1F` [Compound 10, N-(4-fluoro-3-methyl-phenyl)-4-[[3-(hydroxymethyl)oxetan-3-yl]sulfamoyl]-1-methyl-pyrrole-2-carboxamide], in that order: 80 nM, 110 nM and over 25 µM.
`Cc1cc(NC(=O)c2cc(S(=O)(=O)NC3(C)CCOC3)cn2C)ccc1F` (stereo not drawn) [Compound 11, N-(4-fluoro-3-methyl-phenyl)-1-methyl-4-[(3-methyltetrahydrofuran-3-yl)sulfamoyl]pyrrole-2-carboxamide]: the results for the EC50 in the data set on HBV [1] and in the data set with HBV [3] (setting [4]) were 20 nM and 30 nM, respectively. The CC50 at 4 days in data set [2] was over 25 µM.
For `Cc1cc(NC(=O)c2cc(S(=O)(=O)NC3(CO)CC3)cn2C)ccc1F` [Compound 12, N-(4-fluoro-3-methyl-phenyl)-4-[[1-(hydroxymethyl)cyclopropyl]sulfamoyl]-1-methyl-pyrrole-2-carboxamide], the figures for the EC50 with HBV [1] and with HBV [3] (setting [4]) were 60 nM and 120 nM, respectively. The CC50 at 4 days in data set [2] is over 25 µM.
`Cc1cc(NC(=O)c2cc(S(=O)(=O)NC3CC(=O)N(C)C3)cn2C)ccc1F` (stereo not drawn) [Compound 13, N-(4-fluoro-3-methyl-phenyl)-1-methyl-4-[(1-methyl-5-oxo-pyrrolidin-3-yl)sulfamoyl]pyrrole-2-carboxamide]: the concentration giving a half-maximal response (EC50) with HBV [1] turned out to be 140 nM; with HBV [3] (setting [4]) it was 460 nM. In data set [2], this compound gave a CC50 at 4 days of over 25 µM.
